Test results: article PMC7349874, “High Content Screening Using New U2OS Reporter Cell Models Identifies Harmol Hydrochloride as a Selective and Competitive Antagonist of the Androgen Receptor” (Cells, 2020)
Counter-ions that a name gives are not always drawn. Like-named read-outs stand apart in the source and are kept apart here.

Legend:
[1] = target: T1, full-length wild-type AR (hAR) (Homo sapiens, UniProt P10275); assay: Transactivation (luciferase) assay in U2OS-hAR-ARE-Luc reporter cells, screen and validation; format: cell-based; conditions: for Results of 1st screen on AR: 0.3, 1, 3, 10 µM, 16 h, hit = AR transcriptional activity changed by more than 50% dose-dependently, <20% effect in control cells; for Nature of AR inhibition (competitive or non-competitive): 1 nM versus 100 nM R1881
T1 sequence (P10275 1-920): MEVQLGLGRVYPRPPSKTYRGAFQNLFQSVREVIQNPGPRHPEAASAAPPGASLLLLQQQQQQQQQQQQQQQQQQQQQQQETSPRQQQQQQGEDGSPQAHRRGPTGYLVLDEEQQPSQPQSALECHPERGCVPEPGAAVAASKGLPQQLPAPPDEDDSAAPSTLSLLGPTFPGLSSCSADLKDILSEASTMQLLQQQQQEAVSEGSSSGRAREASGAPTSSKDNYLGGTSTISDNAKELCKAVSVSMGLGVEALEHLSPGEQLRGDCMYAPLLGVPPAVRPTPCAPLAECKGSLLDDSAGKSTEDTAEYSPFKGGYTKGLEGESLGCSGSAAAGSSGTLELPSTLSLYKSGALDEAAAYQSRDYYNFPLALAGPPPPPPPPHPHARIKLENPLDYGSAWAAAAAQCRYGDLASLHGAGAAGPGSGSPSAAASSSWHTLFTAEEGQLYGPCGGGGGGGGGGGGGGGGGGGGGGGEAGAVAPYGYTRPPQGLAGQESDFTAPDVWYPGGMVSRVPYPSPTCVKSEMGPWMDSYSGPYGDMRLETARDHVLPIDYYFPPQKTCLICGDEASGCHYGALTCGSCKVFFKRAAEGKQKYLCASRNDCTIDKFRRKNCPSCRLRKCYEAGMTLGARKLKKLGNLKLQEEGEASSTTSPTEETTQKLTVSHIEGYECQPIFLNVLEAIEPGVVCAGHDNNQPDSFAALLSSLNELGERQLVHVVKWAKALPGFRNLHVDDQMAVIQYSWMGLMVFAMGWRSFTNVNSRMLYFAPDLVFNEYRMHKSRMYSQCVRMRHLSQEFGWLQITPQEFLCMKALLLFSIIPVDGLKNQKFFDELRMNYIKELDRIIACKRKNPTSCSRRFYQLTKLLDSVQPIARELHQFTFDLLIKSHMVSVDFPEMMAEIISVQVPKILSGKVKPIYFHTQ
Description: U2OS-hAR-ARE(Rad9)-Luc and U2OS-hARv7-ARE(PB)-Luc were then used to screen the Prestwick phytochemical library®, containing 320 natural compounds, at four concentrations (0.3, 1, 3, 10 µM) in duplicate.

[2] = test system: U2OS-ARE-Luc control cells; assay: Luciferase activity in U2OS-ARE-Luc control cells; conditions: validation, up to 3 µM, 16 h

Compound | Results of 1st screen on AR [1] | also measured
C[C@H]1[C@H]2CC[C@H]3[C@@H]4CC=C5C[C@@H](N(C)C)CC[C@]5(C)[C@H]4CC[C@]23CN1C [Conessine] | No effect | 
Cc1nccc2c1[nH]c1ccccc12 [Harmane hydrochloride] | Inhibition | Results of confirmatory screen (validation of AR inhibition) [1]: Not confirmed; Results of 1st screen on AR ([1]; listed as harmane): active inhibitors of AR transcriptional activity
O=C1Nc2ccccc2/C1=C1/Nc2ccccc2C1=O [Indirubin] | No effect | 
C[C@@H]1O[C@@H](OC[C@H]2O[C@@H](Oc3c(-c4ccc(O)c(O)c4)oc4cc(O)cc(O)c4c3=O)[C@H](O)[C@@H](O)[C@@H]2O)[C@H](O)[C@H](O)[C@H]1O [Rutin] | No effect | 
Foliosidine | No effect | 
CC1=NCCc2c1[nH]c1cc(O)ccc21 [Harmalol hydrochloride dihydrate] | No effect | Results of 1st screen on AR ([1]; listed as harmalol): inactive
O=c1c(-c2ccc(O)cc2)coc2cc(O[C@@H]3O[C@H](CO)[C@@H](O)[C@H](O)[C@H]3O)cc(O)c12 [Genistin] | No effect | 
COc1ccc2cc3n(c(=O)c2c1OC)CCc1cc2c(cc1-3)OCO2 [Berlambine] | No effect | 
CN(C)Cc1c[nH]c2ccccc12 [Gramine] | No effect | 
C=C(C)[C@@H]1CC[C@]2(C(=O)O)CC[C@]3(C)[C@H](CC[C@@H]4[C@@]5(C)CC[C@H](O)C(C)(C)[C@@H]5CC[C@]43C)[C@@H]12 [Betulinic acid] | No effect | 
C[C@@H]1O[C@@H](O[C@H]2C(=O)c3c(O)cc(O)cc3O[C@@H]2c2ccc(O)c(O)c2)[C@H](O)[C@H](O)[C@H]1O [Astilbin] | No effect | 
NC(N)=NOCC[C@H](N)C(=O)O.O.O=S(=O)(O)O [Canavanine sulfate monohydrate (L,+)] | No effect | 
Br.CC[C@H]1CN2CCC1C[C@H]2[C@H](O)c1ccnc2ccc(OC)cc12.O (stereo partly shown) [Hydroquinine hydrobromide hydrate] | No effect | 
COc1ccc2c3c([nH]c2c1)C(C)=NCC3 [Harmaline hydrochloride dihydrate] | No effect | Results of 1st screen on AR ([1]; listed as harmaline): inactive
strophantin | active inhibitors of AR transcriptional activity | 
COc1c2c(cc3oc(CO)cc(=O)c13)O[C@H](C(C)(C)O)C2 [Cimifugin] | No effect | 
Cc1c2ccncc2c(C)c2c1[nH]c1ccccc12 [ellipticine] | active inhibitors of AR transcriptional activity | Nature of AR inhibition (competitive or non-competitive) [1]: non-competitive manner; Results of confirmatory screen (validation of AR inhibition) ([1]; six concentrations, absence or presence of 1 nM or 100 nM R1881): could impair the transcriptional activity of AR; Effect on luciferase activity in control cells [2]: no effect
CN1[C@@H]2CCC[C@H]1CC(=O)C2.Cl [Pseudopelletierine hydrochloride] | No effect | 
C[C@]12CC[C@H](O)C[C@H]1CC[C@@H]1[C@@H]2CC[C@]2(C)[C@@H](C3=CC(=O)OC3)CC[C@]12O [digitoxigenin] | active inhibitors of AR transcriptional activity | 
COc1cc(O)cc(O)c1C(=O)/C=C/c1ccccc1 [Cardamonin] | No effect | 

Compound | Results of 1st screen on AR [1] | also measured
C[C@@H]1NCCc2cc(O)c(O)cc21 [Salsolinol hydrobromide] | No effect | 
O=c1cc(-c2ccc(O)cc2)oc2c([C@@H]3O[C@H](CO)[C@@H](O)[C@H](O)[C@H]3O)c(O)cc(O)c12 [Vitexin] | No effect | 
COc1ccc2c(c1)[nH]c1c(C)nccc12 [Harmine hydrochloride] | Inhibition | Results of confirmatory screen (validation of AR inhibition) [1]: Confirmed; Nature of AR inhibition (competitive or non-competitive) [1]: non-competitive manner; Results of 1st screen on AR ([1]; listed as harmine): active inhibitors of AR transcriptional activity; Results of confirmatory screen (validation of AR inhibition) ([1]; listed as harmine): could impair the transcriptional activity of AR; Effect on luciferase activity in control cells [2]: no effect
COc1ccc(-c2cc(=O)c3c(O)cc(O)cc3o2)cc1 [Acacetin] | No effect | 
CN1CCc2cc3c(c4c2C1Cc1ccccc1-4)OCO3 (stereo not shown) [remerine] | active inhibitors of AR transcriptional activity | 
NCCC(O)C(=O)NC1CC(N)C(OC2OC(CN)C(O)[C@H](O)[C@@H]2N)[C@H](OC2O[C@H](CO)[C@@H](O)[C@@H]2O)[C@@H]1O.O=S(=O)(O)O.O=S(=O)(O)O (stereo partly shown) [Butirosin disulfate salt] | No effect | 
O=C1CCC[C@@H]2[C@H]3CCCN4CCC[C@@H](CN12)[C@@H]34 [Matrine] | No effect | 
C[N+]1(C)CCC[C@H]1C(=O)[O-].Cl [Stachydrine hydrochloride] | No effect | 
CC1=C2C(=O)[C@H]3[C@@H](CC=C4C[C@@H](O)CC[C@@]43C)[C@@H]2CC[C@]12O[C@@H]1C[C@H](C)CN[C@H]1[C@H]2C [Jervine] | No effect | 
Evodiamine | No effect | 
C=CCc1ccc(O)c(-c2ccc(O)c(CC=C)c2)c1 [honokiol] | active inhibitors of AR transcriptional activity | 
O=c1c2ccccc2nc2n1CCc1c-2[nH]c2ccccc12 [Rutaecarpine] | No effect | 
COc1ccc2c(OC)c3ccoc3nc2c1OC [Skimmianine] | No effect | 
COc1ccc([C@@H]2CC(=O)c3c(O)cc(O[C@@H]4O[C@H](CO[C@@H]5O[C@@H](C)[C@H](O)[C@@H](O)[C@H]5O)[C@@H](O)[C@H](O)[C@H]4O)cc3O2)cc1O [Hesperidin] | No effect | 
C=C(C)[C@@H]1[C@H]2OC(=O)[C@@H]1[C@]1(O)C[C@H]3O[C@]34C(=O)O[C@H]2[C@]14C [Picrotoxinin] | No effect | 
OCc1ccccc1O[C@@H]1O[C@H](CO)[C@@H](O)[C@H](O)[C@H]1O [Salicin] | No effect | 
COc1ccc2[nH]c3c(c2c1)CCN=C3C [methoxy-6-harmalan] | inactive | 
Retrorsine | No effect | 
CC[C@@H](C)C(=O)O[C@H]1[C@H](O)[C@H]2[C@@H](CN3C[C@@H](C)CC[C@H]3[C@@]2(C)O)[C@@H]2C[C@]34O[C@]5(O)[C@@H](OC(=O)[C@@](C)(O)CC)CC[C@@]3(C)[C@@H]5[C@@H](OC(C)=O)[C@@H](OC(C)=O)[C@H]4[C@@]21O [Protoveratrine A] | No effect | 
C[C@@H]1CC[C@@]2(NC1)O[C@H]1C[C@H]3[C@@H]4CC=C5C[C@@H](O)CC[C@]5(C)[C@H]4CC[C@]3(C)[C@H]1[C@@H]2C [Solasodine] | No effect | 
